{"source": "patent US8022235B2", "about": "“Compositions of phospholipid ether boronic acids and esters and methods for their synthesis and use” (Cellectar, Inc., priority 2007, dated 2011)", "key": {"[1]": {"test_system": "PC3 human prostate cancer xenografts", "assay": "Single-dose 125I-NM404 treatment, tumor volume, PC3 xenografts", "format": "in vivo, SCID mice", "conditions": "single dose 250 μCi and 500 μCi, n=6 per group", "procedure": "Tumor volumes were calculated using formula (width)^2×(length)/2 and expressed as mean±SEM, n=6 for each group. ⋄ Cold NM404, control;\n(§1) The inventors have previously shown that ^125I-labeled PLE analogs such as NM404 are effective in targeting tumor therapies to tumor cells following single injection and fractionated dosing. For assessment of efficacy of ^125I-NM404 treatment, assessments of tumor volume were made until 10 weeks post-injection or until no animal in the control group was alive, whatever came first. Summarizing the results, control animals show rapidly growing tumors over the 10-week assessment period. See, FIGS. 2 and 3. […] Tumor volumes are stable and the same tumors appear “collapsed” (the tumor surface has caved in). Additionally, the hair above the tumors fell off confirming substantial accumulation of radioactivity in these tumors, FIG. 4. […] (See also, for example, U.S. patent application Ser. No. 11/671,403 hereby incorporated in its entirety for all purposes.)"}, "[2]": {"test_system": "A549 human non-small cell lung cancer xenografts", "assay": "Single-dose 125I-NM404 treatment, tumor volume, A549 xenografts", "format": "in vivo, SCID mice", "from_the_text": "FIG. 3 illustrates antitumor effect of single-dose treatment with ^125I-125-NM404 at doses of 50 (∘), 150 (□), 250 (⋄) and 500 (∘) μCi in SCID mice bearing A549 human non-small cell lung cancer xenografts. In FIG. 3, control animals show rapidly growing tumors over the 10-week assessment period. […] Tumor volumes are stable and some tumors appear “collapsed” (the tumor surface has collapsed). Additionally, hair above the tumors fell off confirming substantial accumulation of radioactivity in these tumors.\nFIG. 4 is an image showing one of the tumor-bearing animals treated with 250 μCi of ^125I-NM404 at 4 weeks following injection. The hair above the tumor has fallen off, apparently due to the significant accumulation of radioactivity in the tumor. […] The measurement method for determining outer tumor dimensions may have underestimated tumor volume response following dosing with ^125I-NM404;\nas §1"}, "[3]": {"test_system": "Adrenal RL-251", "assay": "Imaging and tissue distribution, tumor model", "format": "in vivo, SCID Mouse", "conditions": "days 1 through 14"}, "[4]": {"test_system": "SCC1 and 6", "assay": "Imaging and tissue distribution, tumor model; tumor regression", "format": "in vivo", "from_the_text": "(§2) During the course of mouse tumor uptake and retention studies with “imaging” doses (15-20 μCi/20 g mouse) of ^125I-labeled NM404, several apparent therapeutic responses have been observed (unpublished results). […] Some of these animals also lost all hair above larger mammary tumors at around 8 days after injection. Moreover, these mice also get intestinal tumors and usually suffer from intestinal bleeding resulting in severe anemia, which renders their feet white. […] Another compelling example of tumor regression is illustrated in FIG. 13. Two litter mates each received SCC1 and SCC6 xenografts in their left and right flanks, respectively. One mouse received a single injection of ^125I-NM404 (20 μCi). […] These coincidental findings were reconfirmed in two separate age-matched groups each involving more than 6 mice."}, "[5]": {"test_system": "Mammary SCC and ACC", "assay": "Imaging and tissue distribution, tumor model; therapeutic responses at imaging doses", "format": "in vivo, Apc^Min/+mouse", "conditions": "single intravenous injection, ^125I-labeled, imaging dose 15-20 μCi/20 g mouse", "from_the_text": "as §2"}, "[6]": {"test_system": "animal tumor models", "assay": "Imaging and biodistribution across animal tumor models (general statements)", "from_the_text": "See, for example, U.S. patent application Ser. Nos. 10/906,687, 11/177,740, 11/316,620 and 11/382,645. Due to deficiencies in metabolic phospholipase enzymes in the membranes of malignant tumor cells, the prevailing hypothesis for this specificity is that phospholipid ether analogs become trapped exclusively in tumor cell membranes because of their inability to become metabolized and eliminated by the cancerous cell. Thus, the differential clearance rates of phospholipid ethers from normal cells versus neoplastic tumor cells are responsible for this specificity.\nThe reason for the retention of PLE and analogs in cancer cells remains unknown. Without being held to any particular theory, however, the prevailing hypothesis, is that radioiodinated PLE and APC analogs become trapped in tumor cell membranes because of their inability to be metabolized and eliminated. On the other hand, such lipid molecules are metabolized and cleared by normal tissues, including the liver.\nThese PLE analogs are specifically designed to incorporate aromatic radioiodine in order to render the molecule stable towards in vivo deiodination."}}, "data": [{"smiles": "C[N+](C)(C)CCOP(=O)([O-])OCCCCCCCCCCCCCCCCCCc1ccc([125I])cc1", "note": "[^125I-NM404]", "values": [{"measurement": "change in tumor volume / primary tumor growth", "setting": "[1]", "value": "significant effects in inhibiting the progression of primary tumor growth"}, {"measurement": "tumor volume vs control", "setting": "[2]; 50 μCi dose group", "value": "did not show any difference when compared with control animals"}, {"measurement": "tumor volume vs control", "setting": "[2]; 150, 250 and 500 μCi dose groups", "value": "substantial and prolonged treatment effect"}, {"measurement": "effect on the tumor (appearance)", "setting": "[2]; 250 μCi, 4 weeks following injection (FIG. 4)", "value": "causes central necrosis"}, {"measurement": "dose dependence of effect on tumor volume", "setting": "[2]; single dose 50-500 μCi", "value": "dose-linear effect"}, {"measurement": "tumor volume vs control", "setting": "[2]; single dose 50 and 150 μCi (FIG. 3 legend)", "value": "did not show any difference when compared to control animals"}, {"measurement": "tumor volume vs control", "setting": "[2]; single dose 250 and 500 μCi (FIG. 3 legend)", "value": "substantial and prolonged treatment effect"}, {"measurement": "tissue distribution, blood, spleen and kidney", "setting": "[3]", "value": "distribution in blood, spleen and kidney reduced"}, {"measurement": "tissue distribution, tumor", "setting": "[3]", "value": "accumulation in the tumor increased"}, {"measurement": "tumor regression", "setting": "[4]; by day 41 after injection (FIG. 12)", "value": "significantly reduced"}, {"measurement": "health of treated animal", "setting": "[4]; single injection 20 μCi", "value": "quite healthy 80 days after injection"}, {"measurement": "tumor regression", "setting": "[4]; single injection 20 μCi, SCC1 and SCC6 flank xenografts, untreated litter mate died 21 days later", "value": "regressed significantly"}, {"measurement": "tumor growth", "setting": "[5]", "value": "tumor growth remains static"}, {"measurement": "time over which tumors could be imaged", "setting": "[6]; mammary and prostate tumors in mice", "value": "> 60", "unit": "days"}, {"measurement": "duration of tumor retention", "setting": "[6]; mice, post-injection", "value": "20 to 60", "unit": "days"}]}]}
